Test results: EP0104826A2, “Immunomodulator and method of use for immunomodulation” (FUJISAWA PHARMACEUTICAL CO., LTD., priority 1982, dated 1984)

Tests used:
Type in all cases: in vivo
[1] = tested on: Sarcoma-180 (S-180) cells; experiment: Murine transplantable tumor, total tumor cell packed volume in ascites; settings: mice
Description: Sarcoma-180 (S-180) cells (1 x 10^6 cells) were inoculated to ICR (female, 8 weeks old) mice intraperitoneally and then after, swainsonine was administered intraperitoneally daily for 5 days. The total tumor cell packed volume in ascites was measured 15 days after tumor cell inoculation.

[2] = tested on: antibody forming capacities against SRBC; experiment: Antibody forming capacity (direct plaque-forming cells against SRBC) in mice injected with immunosuppressive factor
Description: Splenic lymphocytes producing antibody against sheep blood red cells (SRBC) were quantitated using Cunningham modification (Cunningham, A.J., Nature, 207, 1106-1107, 1965) of the Jerne plaque assay.
[…] Samples were administered to mice intraperitoneally four times before immunization. Mice were sacrificed 4 days after the injection of SRBC, and the number of direct plaque-forming cells per spleen was determined.

[3] = tested on: antibody forming capacities; experiment: Antibody forming capacity (PFC-SRBC) in mice immunosuppressed with cyclophosphamide
Description: Female BDF1 (8 weeks in age) mice were injected intraperitoneally with cyclophosphamide (22.5 mg/kg) 4 days before immunization with 5 x 10^8 SRBC. Samples were administered to mice i.p. from four days before immunization, every day for five days.
Mouse splenic lymphocytes producing antibody against SRBC were quantitated by using Cunningham modification method described previously.

## O[C@H]1[C@H]2[C@H](O)CCCN2C[C@H]1O [Swainsonine]
[1]
  growth of transplantable tumors: inhibits growth
[2]; BDF1 mice, Swainsonine 100 mg/kg/day intraperitoneally, alone (normal mice)
  PFC-SRBC/spleen (average number of 5 mice/group): 16.49 x 10^4 PFC-SRBC/spleen
[2]; Immunosuppressive factor (0.3 ml/mouse/day) + Swainsonine 3.7 mg/kg i.p.
  PFC-SRBC/spleen (average number of 5 mice/group): 20.77 x 10^4 PFC-SRBC/spleen
[2]; Immunosuppressive factor (0.3 ml/mouse/day) + Swainsonine 11 mg/kg i.p.
  PFC-SRBC/spleen (average number of 5 mice/group): 20.08 x 10^4 PFC-SRBC/spleen
[2]; Immunosuppressive factor (0.3 ml/mouse/day) + Swainsonine 33 mg/kg i.p.
  PFC-SRBC/spleen (average number of 5 mice/group): 20.84 x 10^4 PFC-SRBC/spleen
[2]; Immunosuppressive factor (0.3 ml/mouse/day) + Swainsonine 100 mg/kg i.p.
  PFC-SRBC/spleen (average number of 5 mice/group): 17.39 x 10^4 PFC-SRBC/spleen
[2]; mice injected immunosuppressive factor, intraperitoneal administration
  capacities to produce antibody against SRBC: restored the capacities
[2]; normal mice
  capacities to produce antibody against SRBC: did not enhance
[3]; BDF1 mice, Swainsonine 100 mg/kg i.p. alone
  PFC-SRBC/spleen (average number of 5 mice/group): 16.54 x 10^4 PFC-SRBC/spleen
[3]; Cyclophosphamide (22.5 mg/kg) + Swainsonine 3 mg/kg i.p.
  PFC-SRBC/spleen (average number of 5 mice/group): 21.53 x 10^4 PFC-SRBC/spleen
[3]; Cyclophosphamide (22.5 mg/kg) + Swainsonine 11 mg/kg i.p.
  PFC-SRBC/spleen (average number of 5 mice/group): 16.52 x 10^4 PFC-SRBC/spleen
[3]; Cyclophosphamide (22.5 mg/kg) + Swainsonine 33 mg/kg i.p.
  PFC-SRBC/spleen (average number of 5 mice/group): 17.19 x 10^4 PFC-SRBC/spleen
[3]; Cyclophosphamide (22.5 mg/kg) + Swainsonine 100 mg/kg i.p.
  PFC-SRBC/spleen (average number of 5 mice/group): 16.48 x 10^4 PFC-SRBC/spleen
[3]; mice injected cyclophosphamide
  capacities to produce antibody against SRBC: restored the capacities
